Test results reported in ChEMBL document CHEMBL3621086, “Synthesis of -brominated phosphonates and their application as phosphate bioisosteres” (Medchemcomm, 2014).

What was measured:
[1] = target: Lysophosphatidic acid receptor 2 (Homo sapiens, UniProt Q9HBW0); experiment: Antagonist activity at human LPA2 receptor expressed in […] cells assessed as inhibition of LPA-induced Ca2+ mobilization by FURA-2AM dye based fluorescence assay; format: functional, cell-based
[2] = target: T1, Lysophosphatidic acid receptor 3 (Homo sapiens, UniProt Q9UBY5); experiment: Antagonist activity at human LPA3 receptor expressed in […] cells assessed as inhibition of LPA-induced Ca2+ mobilization by FURA-2AM dye based fluorescence assay; format: functional, cell-based
T1 sequence (Q9UBY5 whole entry): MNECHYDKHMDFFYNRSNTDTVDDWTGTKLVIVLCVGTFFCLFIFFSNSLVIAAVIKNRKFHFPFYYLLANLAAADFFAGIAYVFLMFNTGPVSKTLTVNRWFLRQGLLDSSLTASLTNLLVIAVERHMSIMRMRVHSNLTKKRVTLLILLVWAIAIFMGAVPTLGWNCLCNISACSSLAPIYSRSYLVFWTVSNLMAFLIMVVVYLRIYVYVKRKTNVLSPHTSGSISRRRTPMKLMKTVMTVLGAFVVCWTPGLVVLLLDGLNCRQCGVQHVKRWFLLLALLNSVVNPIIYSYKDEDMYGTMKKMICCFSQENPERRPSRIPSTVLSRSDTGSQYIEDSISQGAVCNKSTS

[3] = target: Lysophosphatidic acid receptor 4 (Homo sapiens, UniProt Q99677); experiment: Antagonist activity at human LPA4 receptor expressed in CHO cells assessed as inhibition of LPA-induced Ca2+ mobilization by FURA-2AM dye based fluorescence assay; format: functional, cell-based
Sequence of Lysophosphatidic acid receptor 4 (Q99677 whole entry): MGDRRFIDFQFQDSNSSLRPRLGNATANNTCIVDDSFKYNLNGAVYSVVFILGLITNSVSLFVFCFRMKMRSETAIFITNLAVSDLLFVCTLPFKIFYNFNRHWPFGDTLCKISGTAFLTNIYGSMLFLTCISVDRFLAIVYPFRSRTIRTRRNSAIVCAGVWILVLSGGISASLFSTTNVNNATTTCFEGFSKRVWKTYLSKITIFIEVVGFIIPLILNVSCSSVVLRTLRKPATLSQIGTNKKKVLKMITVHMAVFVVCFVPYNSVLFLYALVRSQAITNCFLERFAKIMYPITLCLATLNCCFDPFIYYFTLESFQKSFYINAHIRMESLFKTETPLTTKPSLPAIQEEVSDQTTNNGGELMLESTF

[4] = target: Lysophosphatidic acid receptor 1 (Homo sapiens, UniProt Q92633); experiment: Antagonist activity at human LPA1 receptor expressed in […] cells assessed as inhibition of LPA-induced Ca2+ mobilization by FURA-2AM dye based fluorescence assay; format: functional, cell-based
Sequence of Lysophosphatidic acid receptor 1 (Q92633 whole entry): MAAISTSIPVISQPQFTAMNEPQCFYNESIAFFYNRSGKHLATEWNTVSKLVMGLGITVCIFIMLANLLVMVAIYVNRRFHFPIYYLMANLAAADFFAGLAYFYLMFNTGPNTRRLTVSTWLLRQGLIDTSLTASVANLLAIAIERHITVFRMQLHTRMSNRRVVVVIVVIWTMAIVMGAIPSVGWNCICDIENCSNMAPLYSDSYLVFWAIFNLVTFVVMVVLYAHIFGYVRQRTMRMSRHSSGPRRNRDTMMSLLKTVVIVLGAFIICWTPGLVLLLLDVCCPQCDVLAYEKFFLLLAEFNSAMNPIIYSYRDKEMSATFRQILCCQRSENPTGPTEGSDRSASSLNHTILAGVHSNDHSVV

[5] = target: Transient receptor potential cation channel subfamily V member 1 (Homo sapiens, UniProt Q8NER1); experiment: Activation of TRPV-1 channel (unknown origin)
Sequence of Transient receptor potential cation channel subfamily V member 1 (Q8NER1 whole entry): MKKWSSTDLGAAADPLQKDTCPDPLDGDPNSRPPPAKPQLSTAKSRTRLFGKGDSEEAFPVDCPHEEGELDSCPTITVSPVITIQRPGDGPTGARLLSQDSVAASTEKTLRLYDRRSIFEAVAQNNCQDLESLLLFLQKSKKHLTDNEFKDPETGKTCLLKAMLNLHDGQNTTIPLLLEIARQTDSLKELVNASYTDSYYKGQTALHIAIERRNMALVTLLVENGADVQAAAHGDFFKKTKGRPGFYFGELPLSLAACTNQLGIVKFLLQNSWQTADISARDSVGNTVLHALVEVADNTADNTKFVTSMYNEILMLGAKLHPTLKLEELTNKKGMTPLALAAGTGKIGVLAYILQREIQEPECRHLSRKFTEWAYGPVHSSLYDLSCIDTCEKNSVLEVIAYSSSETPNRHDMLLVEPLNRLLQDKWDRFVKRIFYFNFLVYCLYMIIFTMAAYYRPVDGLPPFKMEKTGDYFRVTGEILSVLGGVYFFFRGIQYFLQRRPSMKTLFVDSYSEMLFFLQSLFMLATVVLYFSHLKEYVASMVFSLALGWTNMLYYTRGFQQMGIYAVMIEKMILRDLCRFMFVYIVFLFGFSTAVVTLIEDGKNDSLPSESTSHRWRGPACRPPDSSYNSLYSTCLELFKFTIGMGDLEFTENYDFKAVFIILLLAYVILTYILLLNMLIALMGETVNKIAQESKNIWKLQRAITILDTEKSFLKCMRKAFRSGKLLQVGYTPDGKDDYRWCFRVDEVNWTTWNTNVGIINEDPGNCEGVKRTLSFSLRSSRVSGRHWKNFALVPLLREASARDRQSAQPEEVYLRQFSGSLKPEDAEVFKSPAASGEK

Autotaxin [6] = target: T2, Autotaxin (Homo sapiens, UniProt Q13822); experiment: Inhibition of recombinant ATX (unknown origin) assessed as inhibition of hydrolysis of fluoregenic lysoPC analogue FS-3
Autotaxin [7] = target: T2, Autotaxin; experiment: Inhibition of recombinant ATX (unknown origin) assessed as inhibition of hydrolysis of fluoregenic lysoPC analogue FS-3 at 10 uM
MDA-MB-231 = experiment: Inhibition of cell migration in human MDA-MB-231 cells by scratch wound assay; format: functional
[8] = Binding affinity to Yersinia YopH
[9] = target: T3, Purine nucleoside phosphorylase (Homo sapiens, UniProt P00491); experiment: Inhibition of human erythrocyte PNP
T3 sequence (P00491 whole entry): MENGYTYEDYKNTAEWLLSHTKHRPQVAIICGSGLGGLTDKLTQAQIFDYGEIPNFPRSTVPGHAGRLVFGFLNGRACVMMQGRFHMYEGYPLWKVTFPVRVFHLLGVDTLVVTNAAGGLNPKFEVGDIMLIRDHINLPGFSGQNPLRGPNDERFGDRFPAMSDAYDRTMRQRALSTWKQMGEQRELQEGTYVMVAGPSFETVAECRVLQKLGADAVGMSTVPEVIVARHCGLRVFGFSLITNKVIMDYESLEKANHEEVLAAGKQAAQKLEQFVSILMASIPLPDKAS

Sequence of Lysophosphatidic acid receptor 2 (Q9HBW0 whole entry): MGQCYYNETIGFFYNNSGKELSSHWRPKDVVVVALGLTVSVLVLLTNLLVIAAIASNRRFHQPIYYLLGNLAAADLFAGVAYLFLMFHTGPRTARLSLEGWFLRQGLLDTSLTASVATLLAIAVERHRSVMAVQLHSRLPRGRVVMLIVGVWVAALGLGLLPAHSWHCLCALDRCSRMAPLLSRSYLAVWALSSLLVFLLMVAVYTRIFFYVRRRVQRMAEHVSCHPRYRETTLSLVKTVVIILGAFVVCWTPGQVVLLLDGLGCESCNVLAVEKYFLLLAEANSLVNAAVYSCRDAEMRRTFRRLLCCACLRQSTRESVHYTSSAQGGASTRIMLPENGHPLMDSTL

In the case of `CCCCCCCCCCCCCCCC(=O)OC[C@@H](O)CC(Br)P(=O)(O)O` (some centres not stated), the Ki [1] is reported as 0.17 µM, the Ki [2] is reported as 0.17 µM and the Ki [3] is reported as 0.17 µM. It also gave a Ki [4] of 0.17 µM.
For `CCCCCCCC/C=C\CCCCCCCC(=O)OC[C@@H](O)COP(=O)(O)O` [LYSOPHOSPHATIDIC ACID], the Kd [5] was 0.754 µM.
Compound `CCCCCCCCCCCCCCCC(=O)OC[C@@H](O)CC(Br)P(=O)(O)O` (mixture of isomers) [listing 1 of 2 here] has a Kd [5] of 1.1 µM.
For `CCCCCCCCCCCCCCCC(=O)OC[C@@H](O)C[C@H](Br)P(=O)(O)O`, the IC50 (Autotaxin [6]) was 0.022 µM, the inhibition (Autotaxin [7]) was 98% and the “inhibition (INH)” value (MDA-MB-231) was 50%.
`CCN(CC)c1ccc2c(-c3ccc(S(=O)(=O)NCc4ccc(C(Br)P(=O)(O)O)cc4)cc3S(=O)(=O)[O-])c3ccc(=[N+](CC)CC)cc-3oc2c1` (configuration not stated) gave a Ki [8] of 690 µM.
`O=C(CCCC[C@H]1SC[C@H]2NC(=O)N[C@H]21)NCc1ccc(C(Br)P(=O)(O)O)cc1` (some centres not stated) gave a Ki [8] of 740 µM.
For `CCCCCCCCCCCCCCCC(=O)OC[C@@H](O)CC(Br)P(=O)(O)O` (mixture of isomers) [listing 2 of 2 here], the inhibition (Autotaxin [7]) was 98%.
With `CCCCCCCCCCCCCCCC(=O)OC[C@@H](O)C[C@@H](Br)P(=O)(O)O` the IC50 (Autotaxin [6]) was 0.165 µM, the inhibition (Autotaxin [7]) was 98% and the “inhibition (INH)” value (MDA-MB-231) was 50%.
In the case of `CCCCCCCC/C=C\CCCCCCCC(=O)OC[C@@H](O)CC(Br)P(=O)(O)O` (some centres not stated), the Ki [1] is reported as 0.17 µM, the Ki [2] is reported as 0.17 µM and the Ki [3] is reported as 0.17 µM. For the same compound, the Ki [4] was 0.17 µM.
With `CCN(CC)c1ccc2c(-c3ccc(S(=O)(=O)[O-])cc3S(=O)(=O)NCc3ccc(C(Br)P(=O)(O)O)cc3)c3ccc(=[N+](CC)CC)cc-3oc2c1` (configuration not stated) the Ki [8] was 690 µM.
For `Nc1nc2c(ncn2CCCCC(F)(F)P(=O)(O)O)c(=O)[nH]1`, the Ki [9] was 0.174 µM.
Compound `O=P(O)(O)C(Br)c1ccccc1` (configuration not stated) has a Ki [8] of 4100 µM.
